Results published in publication PMC2394794 (Journal of Synchrotron Radiation, 2008).
Where two headings read alike, the source gives them in different places.

What was measured:
HCV NS3/4A protease [1] = molecular target: T1, HCV NS3/4A protease (Hepatitis C virus genotype 1a, UniProt P27958); conditions: experimental over predicted relative Ki*
HCV NS3/4A protease [2] = molecular target: T1, HCV NS3/4A protease; test: Inhibition of HCV NS3/4A protease by ketoamide inhibitors; format: biochemical; conditions: P2 = DMCP versus P2 = Leu

T1 sequence (P27958 1658-1711): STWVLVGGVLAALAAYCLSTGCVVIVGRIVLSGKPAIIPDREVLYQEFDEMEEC
T1 sequence (P27958 1027-1208): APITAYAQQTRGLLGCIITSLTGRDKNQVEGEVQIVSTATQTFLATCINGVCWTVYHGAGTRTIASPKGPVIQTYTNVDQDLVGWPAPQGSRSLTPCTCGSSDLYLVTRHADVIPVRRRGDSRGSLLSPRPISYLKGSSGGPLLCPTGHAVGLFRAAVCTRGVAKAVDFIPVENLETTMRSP

CC(C)(C)NC(=O)N[C@H](C(=O)N1C[C@H]2[C@@H]([C@H]1C(=O)NC(CC1CCC1)C(=O)C(N)=O)C2(C)C)C(C)(C)C (stereo partly drawn) [Compd 9, ^tBu–urea–t-Bug–DMCP–c-Bua–CONH2] was tested, and the “Ki* ratio exp./SA” value (HCV NS3/4A protease [1]; P2 series) was 4.1, the “Ki* ratio exp./SA” value (HCV NS3/4A protease [1]; P3 series) was 9.0 and the “increase in potency relative to Leu” value (HCV NS3/4A protease [2]) was 70 fold.
